Data published in PubChem BioAssay (NCI).
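These data come from cells grown in 96-well plates and exposed to compound for 48 hours at five concentrations. TGI: concentration producing complete growth inhibition.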

Experiments:
Test in all cases: DTP human tumour cell line panel, 48 h
[1] = system: SNB-75 CNS
[2] = system: UACC-257 melanoma
[3] = system: HCC-2998 colon
[4] = system: MDA-N
[5] = system: HT29 colon
[6] = system: SF-295 CNS
[7] = system: MDA-MB-435
[8] = system: BT-549 breast
[9] = system: OVCAR-3 ovarian
[10] = system: NCI-H23 lung
[11] = system: UACC-62 melanoma
[12] = system: RPMI-8226 leukemia
[13] = system: SK-MEL-5 melanoma
[14] = system: PC-3 prostate
[15] = system: SR leukemia
[16] = system: K-562 leukemia
[17] = system: T-47D breast
[18] = system: HOP-62 NSCLC
[19] = system: MDA-MB-231 breast
[20] = system: OVCAR-5 ovarian
[21] = system: HS 578T breast
[22] = system: SW-620 colon
[23] = system: SNB-19 CNS
[24] = system: SK-MEL-28 melanoma
[25] = system: IGROV1 ovarian
[26] = system: NCI-H226 lung
[27] = system: MALME-3M melanoma
[28] = system: EKVX NSCLC
[29] = system: CCRF-CEM leukemia
[30] = system: MCF7 breast
[31] = system: HCT-15 colon
[32] = system: SF-539 CNS
[33] = system: DU-145 prostate
[34] = system: NCI-H460 lung
[35] = system: MOLT-4 leukemia
[36] = system: SN12C renal
[37] = system: M14 melanoma
[38] = system: NCI-H522 lung
[39] = system: TK-10 renal
[40] = system: RXF 393 renal
[41] = system: OVCAR-8 ovarian
[42] = system: HCT-116 colon
[43] = system: OVCAR-4 ovarian
[44] = system: NCI/ADR-RES ovarian
[45] = system: KM12 colon
[46] = system: 786-0 renal
[47] = system: HOP-92 NSCLC
[48] = system: HL-60(TB) leukemia
[49] = system: ACHN renal
[50] = system: SK-OV-3 ovarian
[51] = system: A549 NSCLC
[52] = system: SF-268 CNS
[53] = system: COLO 205 colon
[54] = system: A498 renal
[55] = system: SK-MEL-2 melanoma
[56] = system: U251 CNS
[57] = system: UO-31 renal
[58] = system: LOX IMVI melanoma
[59] = system: CAKI-1 renal

## CCNC1=C(NC(=O)c2ccc(F)cc2)C(=O)c2ccccc2C1=O
[1]
  TGI: > 100 µM
[2]
  TGI: 46.9 µM
[3]
  TGI: > 100 µM
[4]
  TGI: > 100 µM
[5]
  TGI: 53.6 µM
[6]
  TGI: > 100 µM
[7]
  TGI: 35.9 µM
[8]
  TGI: > 100 µM
[9]
  TGI: 85.7 µM
[10]
  TGI: > 100 µM
[11]
  TGI: > 100 µM
[12]
  TGI: > 100 µM
[13]
  TGI: > 100 µM
[14]
  TGI: > 100 µM
[15]
  TGI: > 100 µM
[16]
  TGI: > 100 µM
[17]
  TGI: > 100 µM
[18]
  TGI: > 100 µM
[19]
  TGI: > 100 µM
[20]
  TGI: > 100 µM
[21]
  TGI: > 100 µM
[22]
  TGI: > 100 µM
[23]
  TGI: > 100 µM
[24]
  TGI: > 100 µM
[25]
  TGI: > 100 µM
[26]
  TGI: > 100 µM
[27]
  TGI: 47.5 µM
[28]
  TGI: > 100 µM
[29]
  TGI: > 100 µM
[30]
  TGI: > 100 µM
[31]
  TGI: > 100 µM
[32]
  TGI: > 100 µM
[33]
  TGI: > 100 µM
[34]
  TGI: > 100 µM
[35]
  TGI: > 100 µM
[36]
  TGI: > 100 µM
[37]
  TGI: 63.5 µM
[38]
  TGI: > 100 µM
[39]
  TGI: > 100 µM
[40]
  TGI: 84.4 µM
[41]
  TGI: > 100 µM
[42]
  TGI: > 100 µM
[43]
  TGI: > 100 µM
[44]
  TGI: > 100 µM
[45]
  TGI: > 100 µM
[46]
  TGI: > 100 µM
[47]
  TGI: > 100 µM
[48]
  TGI: > 100 µM
[49]
  TGI: > 100 µM
[50]
  TGI: > 100 µM
[51]
  TGI: > 100 µM
[52]
  TGI: > 100 µM
[53]
  TGI: > 100 µM

## CC(CN1NC12CCCC2)N1NC12CCCC2 (stereo unspecified)
[1]
  TGI: > 100 µM
[2]
  TGI: > 100 µM
[3]
  TGI: > 100 µM
[4]
  TGI: > 100 µM
[5]
  TGI: > 100 µM
[6]
  TGI: > 100 µM
[7]
  TGI: > 100 µM
[8]
  TGI: > 100 µM
[9]
  TGI: > 100 µM
[10]
  TGI: > 100 µM
[11]
  TGI: > 100 µM
[12]
  TGI: > 100 µM
[13]
  TGI: > 100 µM
[14]
  TGI: > 100 µM
[16]
  TGI: > 100 µM
[17]
  TGI: > 100 µM
[54]
  TGI: > 100 µM
[18]
  TGI: > 100 µM
[19]
  TGI: > 100 µM
[20]
  TGI: > 100 µM
[21]
  TGI: > 100 µM
[22]
  TGI: > 100 µM
[23]
  TGI: > 100 µM
[24]
  TGI: > 100 µM
[25]
  TGI: > 100 µM
[26]
  TGI: > 100 µM
[27]
  TGI: > 100 µM
[28]
  TGI: > 100 µM
[29]
  TGI: > 100 µM
[30]
  TGI: > 100 µM
[31]
  TGI: > 100 µM
[32]
  TGI: > 100 µM
[55]
  TGI: > 100 µM
[33]
  TGI: > 100 µM
[56]
  TGI: > 100 µM
[34]
  TGI: > 100 µM
[35]
  TGI: > 100 µM
[36]
  TGI: > 100 µM
[37]
  TGI: > 100 µM
[38]
  TGI: > 100 µM
[39]
  TGI: > 100 µM
[57]
  TGI: > 100 µM
[40]
  TGI: > 100 µM
[41]
  TGI: > 100 µM
[42]
  TGI: > 100 µM
[43]
  TGI: > 100 µM
[44]
  TGI: > 100 µM
[45]
  TGI: > 100 µM
[46]
  TGI: > 100 µM
[47]
  TGI: > 100 µM
[48]
  TGI: > 100 µM
[58]
  TGI: > 100 µM
[49]
  TGI: > 100 µM
[50]
  TGI: > 100 µM
[51]
  TGI: > 100 µM
[59]
  TGI: > 100 µM
[52]
  TGI: > 100 µM
[53]
  TGI: > 100 µM
